Test results reported in PubChem BioAssay (NCI).
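Five compound concentrations were applied to cells in 96-well plates for 48 hours; endpoints were derived by simple linear interpolation of the resulting dose-response curve. Here, GI50 denotes the concentration required for 50% inhibition of growth. The concentration for full growth arrest is given as TGI.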

Columns and labels:
Assay in all cases: growth of human tumour cells (NCI), 48 h
[1] = tested on: ACHN renal
[2] = tested on: BT-549 breast
[3] = tested on: COLO 205 colon
[4] = tested on: EKVX NSCLC
[5] = tested on: HCC-2998 colon
[6] = tested on: HCT-15 colon
[7] = tested on: HOP-92 NSCLC
[8] = tested on: HS 578T breast
[9] = tested on: IGROV1 ovarian
[10] = tested on: M14 melanoma
[11] = tested on: MALME-3M melanoma
[12] = tested on: NCI-H23 lung
[13] = tested on: NCI/ADR-RES ovarian
[14] = tested on: SF-539 CNS
[15] = tested on: SNB-75 CNS
[16] = tested on: SR leukemia
[17] = tested on: SW-620 colon
[18] = tested on: T-47D breast
[19] = tested on: U251 CNS

| SMILES | TGI [1] | TGI [2] | TGI [3] | TGI [4] | TGI [5] | TGI [6] | TGI [7] | TGI [8] | TGI [9] | TGI [10] | TGI [11] | TGI [12] | TGI [13] | TGI [14] | TGI [15] | TGI [16] | TGI [17] | TGI [18] | TGI [19] | GI50 [13] |
| --- | --- | --- | --- | --- | --- | --- | --- | --- | --- | --- | --- | --- | --- | --- | --- | --- | --- | --- | --- | --- |
| C[N+]12CCCCC1C(COc1cccc3cccnc13)CCC2 (configuration not stated) | > 100 µM | > 100 µM | > 100 µM | > 100 µM | > 100 µM | > 100 µM | > 100 µM | > 100 µM | > 100 µM | > 100 µM | > 100 µM | > 100 µM | > 100 µM | > 100 µM | > 100 µM | > 100 µM | > 100 µM | > 100 µM | > 100 µM |  |
| CC(=O)Nc1ccc(-c2nc3ccccc3s2)cc1Br | > 100 µM | > 100 µM | > 100 µM | > 97.1 µM | > 100 µM | > 100 µM | > 100 µM | 69.1 µM | 17.4 µM | > 100 µM | > 100 µM | > 97.3 µM | > 100 µM | > 77.3 µM | 78 µM | > 100 µM | > 100 µM | > 100 µM | > 100 µM |  |
| COC(=O)c1ccccc1/C=C1\Cc2c(ccc3c2CCC3)C1=O | > 100 µM | > 100 µM | > 100 µM | > 100 µM | > 100 µM | > 100 µM | > 100 µM | > 100 µM | > 100 µM | > 100 µM | > 100 µM | > 100 µM | > 100 µM | > 100 µM | > 100 µM | > 100 µM | > 100 µM | > 100 µM | > 100 µM |  |
| O=C1CSC(c2ccccc2)N1c1nc2cc3sc(N4C(=O)CSC4c4ccccc4)nc3cc2s1 (configuration not stated) | > 100 µM | > 100 µM | > 26.9 µM | > 100 µM | > 100 µM | > 100 µM | > 100 µM | > 100 µM | > 100 µM | > 100 µM | > 100 µM | > 100 µM | > 100 µM | 15.6 µM | > 92.3 µM | > 100 µM | > 100 µM | > 100 µM | > 100 µM |  |
| Cc1sc2nc(N(C)C)oc(=O)c2c1C | > 100 µM | 49.1 µM | > 100 µM | > 100 µM | > 100 µM | > 100 µM | > 100 µM | > 100 µM | > 100 µM | > 100 µM | > 100 µM | > 100 µM | > 100 µM | > 100 µM | > 100 µM | > 100 µM | > 100 µM | > 100 µM | > 100 µM |  |
| CC(=O)OC1=NN=C2COC(c3ccccc3OC(C)=O)=NN2C1 | > 50 µM | > 50 µM | > 50 µM | > 50 µM | > 50 µM | > 50 µM | > 50 µM | > 50 µM | > 50 µM | > 50 µM | > 50 µM | > 50 µM | > 50 µM | > 50 µM | > 50 µM | > 50 µM | > 50 µM | > 50 µM | > 50 µM |  |
| CCOc1cccc(C=Nc2ccccc2SSc2ccccc2N=Cc2cccc(OCC)c2O)c1O | 29.3 µM | 8.19 µM | 12.4 µM | 19 µM | 44.1 µM | 12.9 µM | 33.3 µM | 90.7 µM | 15.9 µM | 19.4 µM | 23.6 µM | 20.3 µM | > 100 µM | 80.2 µM | 56 µM | 28.2 µM | 23.1 µM | 10.7 µM | 13.2 µM |  |
| Cn1c(-c2cccs2)cc(-c2cccs2)c1-c1cccs1 | > 100 µM | > 100 µM | 34.1 µM | > 100 µM | > 100 µM | > 100 µM | > 100 µM | > 100 µM | > 100 µM | > 100 µM | > 100 µM | > 100 µM | > 100 µM | > 100 µM | > 100 µM | > 100 µM | > 100 µM | > 51.8 µM | > 100 µM |  |
| CC(C)OC(=O)c1ccc(NCC2=CC(=O)C=CC2=O)cc1 | 24.3 µM | 26.1 µM | 13.7 µM | 31.7 µM | 38.2 µM | 25.5 µM | 8.83 µM | 65.4 µM | 26.4 µM | 28.3 µM | 22.7 µM | 29 µM | 30.7 µM | 22.4 µM | 76.3 µM | 8.37 µM | 26.5 µM | 7.95 µM | 31.3 µM |  |
| CC(=O)OCC1OC(NC(=S)Nn2c(=O)[nH]c3ccccc3c2=O)C(OC(C)=O)C(OC(C)=O)C1OC(C)=O (configuration not stated) | > 100 µM | > 100 µM | > 100 µM | > 100 µM | > 100 µM | > 100 µM | > 100 µM | > 100 µM | > 100 µM | > 100 µM | > 100 µM | > 100 µM | > 100 µM | > 100 µM | > 100 µM | > 100 µM | > 100 µM | > 100 µM | > 100 µM |  |
| CSC1=N/C(=C\c2ccc(C)cc2)C(=O)N1 | > 100 µM | > 100 µM | > 100 µM | > 100 µM | > 100 µM | > 100 µM | > 100 µM | > 100 µM | > 100 µM | > 100 µM | > 100 µM | > 100 µM | > 100 µM | > 100 µM | > 100 µM | > 100 µM | > 100 µM | > 100 µM | > 100 µM |  |
| CC(NC(=O)OCc1ccccc1)NC(=O)OC(C)(C)C (configuration not stated) | > 100 µM | > 100 µM | > 100 µM | > 100 µM | > 100 µM | > 100 µM | > 100 µM | > 100 µM | > 100 µM | > 100 µM | > 100 µM | > 100 µM | > 100 µM | > 100 µM | > 100 µM | > 100 µM | > 100 µM | > 100 µM | > 100 µM |  |
| O=C1c2ccccc2-c2nnc(-c3ccc([N+](=O)[O-])cc3)cc21 | > 10 µM | > 10 µM | > 10 µM | > 10 µM | > 10 µM | > 10 µM | > 10 µM | > 10 µM | > 10 µM | > 10 µM | > 10 µM | > 10 µM | > 10 µM | > 10 µM | > 10 µM | > 10 µM | > 10 µM | > 10 µM | > 10 µM |  |
| COc1nn(Cc2ccccn2)c2ccc([N+](=O)[O-])cc12 | > 100 µM | > 100 µM | > 100 µM | > 100 µM | > 100 µM | > 100 µM | 84.2 µM | 88 µM | > 100 µM | > 100 µM | > 100 µM | > 100 µM | > 100 µM | > 100 µM | 93 µM | 98.4 µM | > 100 µM | > 100 µM | > 100 µM |  |
| CCOC(=O)CC[C@H](N)C(=O)N[C@@H](Cc1ccc(N(CCCl)CCCl)cc1)C(=O)OCC | 1.72 µM | 22.3 µM | 2.3 µM | 6.11 µM | 2.59 µM | 3.86 µM | 1.62 µM | 4.92 µM | 4.75 µM | 1.59 µM | 0.823 µM | 1.35 µM | 21.1 µM | 2.8 µM | 4.44 µM | > 42.2 µM | 5.87 µM | 8.49 µM | 7.39 µM | 3.7 µM |
| CCCN(CCc1ccc(-c2ccccc2)cc1)CCc1ccc2n[nH]nc2c1 | 25.4 µM | 22.2 µM | 9.07 µM | 27.5 µM | 19.7 µM | 21.4 µM | 15.2 µM | 51.8 µM | 22.1 µM | 25.4 µM | 22.8 µM | 25.8 µM | 47 µM | 24 µM | 30.6 µM | 17.9 µM | 36.3 µM | 19.2 µM | 37.6 µM |  |
| Nc1cc(Cl)cc2cc(Cl)cnc12 | > 100 µM | > 100 µM | > 100 µM | > 100 µM | > 100 µM | > 100 µM | 99.3 µM | > 100 µM | > 100 µM | > 100 µM | > 100 µM | > 100 µM | > 100 µM | > 100 µM | > 100 µM | > 100 µM | > 100 µM | > 100 µM | > 100 µM |  |
| CCSc1nnc(Sc2c3ccccc3nc3ccccc23)s1 | 17.7 µM | 31.7 µM | 7.01 µM | 16.7 µM | 25.3 µM | 13.3 µM | > 44.8 µM | > 100 µM | > 55 µM | 32.1 µM | > 100 µM | 53.1 µM | > 64.2 µM | 21.9 µM | > 100 µM | > 100 µM | > 40.8 µM | > 44.2 µM | > 57.9 µM |  |
| O=C(Nc1ccc(Cl)cc1)c1cc(S(=O)(=O)Nc2n[nH]c(Nc3ccc4ccccc4c3)n2)c(SSc2cc(Cl)c(C(=O)Nc3ccc(Cl)cc3)cc2S(=O)(=O)Nc2n[nH]c(Nc3ccc4ccccc4c3)n2)cc1Cl | 53.9 µM | 61.1 µM | 38.8 µM | > 100 µM | 43.7 µM | 43.7 µM | 59.8 µM | > 100 µM | 56.1 µM | 59 µM | 43 µM | 66.5 µM | > 85.4 µM | 60.5 µM | 76.6 µM | > 68 µM | 49.8 µM | 43.6 µM | 58.6 µM |  |
